Consider 29 molecules from patent publication US10106534B2 (CELGENE QUANTICEL RESEARCH, INC., priority 2014, dated 2018).

As a reminder, the IC50 is the concentration at which inhibition is half-maximal. Low readings indicate higher potency, high ones lower potency.

The target in one experiment is JMJD2C (Homo sapiens (Human), UniProt Q9H3R0). As to the kind of experiment: In vitro enzyme inhibition assay for JMJD2C activity (TR-FRET). It is filed as biochemical.
JMJD2C, sequence (Q9H3R0 2-372): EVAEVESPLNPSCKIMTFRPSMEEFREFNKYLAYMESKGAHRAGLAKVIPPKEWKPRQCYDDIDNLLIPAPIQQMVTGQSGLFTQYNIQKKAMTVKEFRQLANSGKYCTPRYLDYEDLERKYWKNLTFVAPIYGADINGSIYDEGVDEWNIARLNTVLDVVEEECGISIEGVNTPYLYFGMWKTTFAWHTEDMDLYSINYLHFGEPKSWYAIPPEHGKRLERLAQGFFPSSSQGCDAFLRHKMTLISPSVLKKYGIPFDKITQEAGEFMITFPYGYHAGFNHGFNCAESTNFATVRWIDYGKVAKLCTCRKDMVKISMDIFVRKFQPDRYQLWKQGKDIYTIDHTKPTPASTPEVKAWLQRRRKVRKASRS
Conditions: not given
How it is done:
This assay determines the ability of a test compound to inhibit JMJD2C demethylase activity. Baculovirus expressed JMJD2C (GenBank Accession #BC143571, AA 2-372) was purchased from BPS Bioscience (Cat#50105).
The ability of test compounds to inhibit the activity of JMJD2C was determined in 384-well plate format under the following reaction conditions: 0.3 nM JMJD2C, 300 nM H3K9me3-biotin labeled peptide (Anaspec cat #64360), 2 μM alpha-ketoglutaric acid in assay buffer of 50 mM HEPES, pH7.3, 0.005% Brij35, 0.5 mM TCEP, 0.2 mg/ml BSA, 50 μM sodium L-ascorbate, and 2 μM ammonium iron(II) sulfate. Reaction product was determined quantitatively by TR-FRET after the addition of detection reagent Phycolink Streptavidin-allophycocyanin (Prozyme) and Europium-anti-di-methylated histone H3 lysine 9 (H3K9me2) antibody (PerkinElmer) in the presence of 5 mM EDTA in LANCE detection buffer (PerkinElmer) at a final concentration of 50 nM and 1 nM, respectively.
The assay reaction was initiated by the following: 2 μl of the mixture of 900 nM H3K9me3-biotin labeled peptide and 6 μM alpha-ketoglutaric acid with 2 μl of 11-point serial diluted inhibitor in 3% DMSO were added to each well of the plate, followed by the addition of 2 μl of 0.9 nM JMJD2C to initiate the reaction. The reaction mixture was incubated at room temperature for 30 minutes, and terminated by the addition of 6 μl of 5 mM EDTA in LANCE detection buffer containing 100 nM Phycolink Streptavidin-allophycocyanin and 2 nM Europium-anti-H3K9me2 antibody. Plates were read by EnVisionMultilabel Reader in TR-FRET mode (excitation at 320 nm, emission at 615 nm and 665 nm) after 1 hour incubation at room temperature. A ratio was calculated (665/615) for each well and fitted to determine inhibition constant (IC50).
A general note: Time-resolved FRET reads energy transfer from a long-lived donor to a nearby acceptor.
In the case of `CCc1ccc2c(c1)CCC[C@@H]2CNc1cnccc1C(=O)O` [Example 90, 3-({[(1S)-6-ethyl-1,2,3,4-tetrahydronaphthalen-1-yl]methyl}amino)pyridine-4-carboxylic acid], the concentration for half-maximal inhibition (IC50) is 100 to 1000 nM. Still for that read-out and setting: with `Cc1ccc(S(=O)(=O)c2ccc3c(c2)CCC[C@@H]3CNc2cnccc2C(=O)O)cc1` [Example 83, 3-({[(1S)-6-(4-methylbenzenesulfonyl)-1,2,3,4-tetrahydronaphthalen-1-yl]methyl}amino)pyridine-4-carboxylic acid] the figure was 100 to 1000 nM; with `O=C(O)c1ccncc1NCC1CCCc2cc(Oc3ccccc3C(F)(F)F)ccc21` (centres unmarked) [Example 62, 3-[({6-[2-(trifluoromethyl)phenoxy]-1,2,3,4-tetrahydronaphthalen-1-yl}methyl)amino]pyridine-4-carboxylic acid], 1000 to 10000 nM. On the same count and under the same terms, with `CN(c1ccc2c(c1)CCC[C@H]2CNc1cnccc1C(=O)O)C1CCOCC1` [Example 113, 3-({[(1R)-6-[methyl(oxan-4-yl)amino]-1,2,3,4-tetrahydronaphthalen-1-yl]methyl}amino)pyridine-4-carboxylic acid] the figure was 100 to 1000 nM; with `CN(c1ccc(C(F)(F)F)cc1)c1ccc2c(c1)OCC[C@H]2CNc1cnccc1C(=O)O` [Example 128, 3-({[(4R)-7-{methyl[4-(trifluoromethyl)phenyl]amino}-3,4-dihydro-2H-1-benzopyran-4-yl]methyl}amino)pyridine-4-carboxylic acid], 1000 to 10000 nM; with `O=C(O)c1ccncc1NCC1CCCc2cc(S(=O)(=O)c3cccc(F)c3)ccc21` (centres unmarked) [Example 87, 3-({[6-(3-fluorobenzenesulfonyl)-1,2,3,4-tetrahydronaphthalen-1-yl]methyl}amino)pyridine-4-carboxylic acid], 100 to 1000 nM. The same measure, in the same setting: with `Cc1ccccc1-c1ccc2c(c1)OCC[C@@H]2CNc1cnccc1C(=O)O` [Example 100, 3-({[(4S)-7-(2-methylphenyl)-3,4-dihydro-2H-1-benzopyran-4-yl]methyl}amino)pyridine-4-carboxylic acid] the figure was 1000 to 10000 nM; with `Cc1cccc(S(=O)(=O)c2ccc3c(c2)CCC[C@@H]3CNc2cnccc2C(=O)O)c1` [Example 85, 3-({[(1S)-6-(3-methylbenzenesulfonyl)-1,2,3,4-tetrahydronaphthalen-1-yl]methyl}amino)pyridine-4-carboxylic acid], 1000 to 10000 nM. Molecule `O=C(O)c1ccncc1NC[C@H]1CCCc2cc(Sc3ccccc3F)ccc21` [Example 72, 3-({[(1S)-6-[(2-fluorophenyl)sulfanyl]-1,2,3,4-tetrahydronaphthalen-1-yl]methyl}amino)pyridine-4-carboxylic acid] gave an IC50 of 1000 to 10000 nM. Still for that read-out and setting: with `O=C(O)c1ccncc1NC[C@H]1CCCc2cc(Sc3ccc(F)cc3)ccc21` [Example 76, 3-({[(1S)-6-[(4-fluorophenyl)sulfanyl]-1,2,3,4-tetrahydronaphthalen-1-yl]methyl}amino)pyridine-4-carboxylic acid] the figure was 1000 to 10000 nM; with `CN(c1ccc(CC2CC2)cc1)c1ccc2c(c1)OCC[C@H]2CNc1cnccc1C(=O)O` [Example 215, 3-({[(4R)-7-{[4-(cyclopropylmethyl)phenyl](methyl)amino}-3,4-dihydro-2H-1-benzopyran-4-yl]methyl}amino)pyridine-4-carboxylic acid], 100 to 1000 nM. In turn, `Cc1ccc(Sc2ccc3c(c2)CCC[C@@H]3CNc2cnccc2C(=O)O)cc1` [Example 78, 3-({[(1S)-6-[(4-methylphenyl)sulfanyl]-1,2,3,4-tetrahydronaphthalen-1-yl]methyl}amino)pyridine-4-carboxylic acid] came in with a 50% inhibitory concentration (IC50) of 1000 to 10000 nM. Same read-out and setting: the same measure for `O=C(O)c1ccncc1NC[C@@H]1CCCc2cc(N3CCCCc4ccccc43)ccc21` [Example 162, 3-({[(1R)-6-(2,3,4,5-tetrahydro-1H-1-benzazepin-1-yl)-1,2,3,4-tetrahydronaphthalen-1-yl]methyl}amino)pyridine-4-carboxylic acid]: 1000 to 10000 nM. Same read-out and setting: the same measure for `O=C(O)c1ccncc1NC[C@H]1CCCc2cc(Sc3cccc(F)c3)ccc21` [Example 74, 3-({[(1S)-6-[(3-fluorophenyl)sulfanyl]-1,2,3,4-tetrahydronaphthalen-1-yl]methyl}amino)pyridine-4-carboxylic acid]: 1000 to 10000 nM; for `Cc1ccccc1Sc1ccc2c(c1)CCC[C@@H]2CNc1cnccc1C(=O)O` [Example 70, 3-({[(1S)-6-[(2-methylphenyl)sulfanyl]-1,2,3,4-tetrahydronaphthalen-1-yl]methyl}amino)pyridine-4-carboxylic acid]: 1000 to 10000 nM. Regarding `CN(c1ccc2c(c1)CCC[C@H]2CNc1cnccc1C(=O)O)c1ccc2occc2c1` [Example 137, 3-({[(1R)-6-[(1-benzofuran-5-yl)(methyl)amino]-1,2,3,4-tetrahydronaphthalen-1-yl]methyl}amino)pyridine-4-carboxylic acid], the half-maximal inhibitory concentration (IC50) was in the range of 1000 to 10000 nM. The molecule `COc1cc2c(cc1F)[C@@H](CNc1cnccc1C(=O)O)CCC2` [Example 96, 3-({[(1S)-7-fluoro-6-methoxy-1,2,3,4-tetrahydronaphthalen-1-yl]methyl}amino)pyridine-4-carboxylic acid] yielded a half-maximal inhibitory concentration (IC50) of 100 to 1000 nM. `COc1ccc2c(c1C)CCC[C@@H]2CNc1cnccc1C(=O)O` [Example 98, 3-({[(1S)-6-methoxy-5-methyl-1,2,3,4-tetrahydronaphthalen-1-yl]methyl}amino)pyridine-4-carboxylic acid] displayed an IC50 of 100 to 1000 nM. On the same count and under the same terms, the same measure for `Cc1cccc(N(C)c2ccc3c(c2)CCC[C@H]3CNc2cnccc2C(=O)O)c1` [Example 143, 3-({[(1R)-6-[methyl(3-methylphenyl)amino]-1,2,3,4-tetrahydronaphthalen-1-yl]methyl}amino)pyridine-4-carboxylic acid]: 1000 to 10000 nM. `O=C(O)c1ccncc1NCC1NCCc2ccccc21` (centres unmarked) [Example 149, 3-[(1,2,3,4-tetrahydroisoquinolin-1-ylmethyl)amino]pyridine-4-carboxylic acid] gave an IC50 of 100 to 1000 nM.

As for `O=C(O)c1ccncc1NC[C@@H]1CCCc2cc(Sc3cccc(F)c3)ccc21` [Example 75, 3-({[(1R)-6-[(3-fluorophenyl)sulfanyl]-1,2,3,4-tetrahydronaphthalen-1-yl]methyl}amino)pyridine-4-carboxylic acid], the IC50 was 100 to 1000 nM. In turn, `Cc1ccccc1Oc1ccc2c(c1)CCC[C@@H]2CNc1cnccc1C(=O)O` [Example 57, 3-({[(1S)-6-(2-methylphenoxy)-1,2,3,4-tetrahydronaphthalen-1-yl]methyl}amino)pyridine-4-carboxylic acid] yielded an IC50 of 1000 to 10000 nM. For the molecule `Cc1ccccc1Sc1ccc2c(c1)OCC[C@@H]2CNc1cnccc1C(=O)O` [Example 50, 3-({[(4S)-7-[(2-methylphenyl)sulfanyl]-3,4-dihydro-2H-1-benzopyran-4-yl]methyl}amino)pyridine-4-carboxylic acid], the concentration for half-maximal inhibition (IC50) was in the range of 1000 to 10000 nM.

On to `CN(c1ccc(OC(F)(F)F)cc1)c1ccc2c(c1)CCC[C@H]2CNc1cnccc1C(=O)O` [Example 181, 3-({[(1R)-6-{methyl[4-(trifluoromethoxy)phenyl]amino}-1,2,3,4-tetrahydronaphthalen-1-yl]methyl}amino)pyridine-4-carboxylic acid], for which the IC50 lay within 100 to 1000 nM. `Cc1c(F)cccc1-c1ccc2c(c1)OCC[C@@H]2CNc1cnccc1C(=O)O` [Example 41, 3-({[(4S)-7-(3-fluoro-2-methylphenyl)-3,4-dihydro-2H-1-benzopyran-4-yl]methyl}amino)pyridine-4-carboxylic acid] yielded an IC50 of 1000 to 10000 nM. As to `O=C(O)c1ccncc1NC[C@@H]1CCCc2cc(N3CCOc4ccccc43)ccc21` [Example 108, 3-({[(1R)-6-(3,4-dihydro-2H-1,4-benzoxazin-4-yl)-1,2,3,4-tetrahydronaphthalen-1-yl]methyl}amino)pyridine-4-carboxylic acid], the IC50 was in the range of 1000 to 10000 nM. Turning to `CN(c1ccc(C(=O)C2CC2)cc1)c1ccc2c(c1)OCC[C@H]2CNc1cnccc1C(=O)O` [Example 216, 3-({[(4R)-7-[(4-cyclopropanecarbonylphenyl)(methyl)amino]-3,4-dihydro-2H-1-benzopyran-4-yl]methyl}amino)pyridine-4-carboxylic acid], the half-inhibitory concentration (IC50) was in the range of 100 to 1000 nM. As to `Cc1cccc(Sc2ccc3c(c2)CCC[C@@H]3CNc2cnccc2C(=O)O)c1` [Example 68, 3-({[(1S)-6-[(3-methylphenyl)sulfanyl]-1,2,3,4-tetrahydronaphthalen-1-yl]methyl}amino)pyridine-4-carboxylic acid], the half-inhibitory concentration (IC50) fell in the range of 1000 to 10000 nM.

Still in this experiment, the particulars now being: R-enantiomer vs S-enantiomer.
For `O=C(O)c1ccncc1NC[C@@H]1CCOc2cc(-c3ccccc3)ccc21` [Example 84 of U.S. Pat. No. 8,952,151, 3-({[(4R)-7-phenyl-3,4-dihydro-2H-1-benzopyran-4-yl]methyl}amino)pyridine-4-carboxylic acid, reference compound], the “fold more potent for JMJD2C than the S-enantiomer” value was “about 6 fold”.
